In ChEMBL document CHEMBL3108733, “Design, synthesis, and evaluation of hydroxamic acid derivatives as promising agents for the management of Chagas disease” (J Med Chem, 2014):
Activity calls are given as the source filed them. No cut-off for these calls is given here.

Key:
[1] = system: Trypanosoma cruzi; assay: Inhibition of MMP9 in Trypanosoma cruzi Y epimastigotes assessed as effect on protein level at 32 uM after 5 days by Western blotting analysis
[2] = Inhibition of Trypanosoma cruzi recombinant carbonic anhydrase-mediated CO2 hydration by stopped-flow assay
[3] = system: Trypanosoma cruzi; assay: Antitrypanosomal activity against Trypanosoma cruzi Y epimastigotes assessed as growth inhibition at 32 uM after 5 days by Neubauer chamber counting analysis relative to control; type: functional
[4] = system: Trypanosoma cruzi; assay: Trypanocidal activity against Trypanosoma cruzi Y infected in BALB/c mouse assessed as mouse survival at 100 mg/kg treated from day 2 to day 9 post-infection; type: functional
[5] = system: Trypanosoma cruzi; assay: Antitrypanosomal activity against Trypanosoma cruzi Y infected in human THP1 cells assessed as decrease in intracellular amastigotes at 2 uM after 48 hrs by Giemsa staining-based Neubauer chamber counting analysis; type: functional, organism-based; conditions: THP-1
[6] = system: Trypanosoma cruzi; assay: Trypanocidal activity against Trypanosoma cruzi Y infected in BALB/c mouse assessed as reduction in parasitemia at 25 mg/kg treated from day 2 to day 9 post-infection measured on day 6 post-infection; type: functional, organism-based; parameters: dose 25 mg/kg
[7] = system: Trypanosoma cruzi; assay: Antitrypanosomal activity against Trypanosoma cruzi Y epimastigotes after 5 days by resazurin dye-based assay; conditions: 120 h
[8] = system: Trypanosoma cruzi; assay: Antitrypanosomal activity against Trypanosoma cruzi Y infected in human THP1 cells assessed as reduction of parasite burden at 32 uM after 48 hrs by Giemsa staining-based Neubauer chamber counting analysis relative to control; type: functional, THP-1; parameters: scale not given: the % may be the effect or the level left
[9] = system: Trypanosoma cruzi; assay: Antitrypanosomal activity against Trypanosoma cruzi Y infected in BALB/c mouse peritoneal macrophages assessed as reduction of parasite burden at 32 uM after 48 hrs by Giemsa staining-based Neubauer chamber counting analysis relative to control; type: functional; parameters: scale not given: the % may be the effect or the level left
[10] = system: Trypanosoma cruzi; assay: Trypanocidal activity against Trypanosoma cruzi Y infected in BALB/c mouse assessed as reduction in parasitemia at 25 mg/kg treated from day 2 to day 9 post-infection measured on day 9 post-infection; type: functional, organism-based; parameters: dose 25 mg/kg
[11] = system: Trypanosoma cruzi; assay: Antitrypanosomal activity against Trypanosoma cruzi Y trypomastigotes after 48 hrs by Neubauer chamber counting analysis
[12] = system: Trypanosoma cruzi; assay: Antitrypanosomal activity against Trypanosoma cruzi Dm28c trypomastigotes at 16 uM after 48 hrs by Neubauer chamber counting analysis relative to control; type: functional
[13] = system: Trypanosoma cruzi; conditions: Y, 32 to 64 uM
Description: Inhibition of cysteine peptidase in Trypanosoma cruzi Y epimastigotes at 32 to 64 uM after 12 hrs by gelatin zymography assay

[14] = Cytotoxicity against BALB/c mouse peritoneal macrophages after 24 hrs by MTT/LDH assay; type: cell-based, Peritoneal macrophage cell
[15] = system: Trypanosoma cruzi; assay: Trypanocidal activity against Trypanosoma cruzi Y infected in BALB/c mouse assessed as mouse survival at 25 mg/kg treated from day 2 to day 9 post-infection; type: functional
[16] = system: Trypanosoma cruzi; assay: Antitrypanosomal activity against Trypanosoma cruzi Y infected in human THP1 cells assessed as reduction of parasite burden after 48 hrs by Giemsa staining-based Neubauer chamber counting analysis; conditions: THP-1, 48 h
[17] = system: Trypanosoma cruzi; assay: Antitrypanosomal activity against Trypanosoma cruzi Dm28c trypomastigotes after 48 hrs by Neubauer chamber counting analysis
[18] = system: Trypanosoma cruzi; assay: Antitrypanosomal activity against Trypanosoma cruzi Dm28c epimastigotes after 5 days by resazurin dye-based assay; conditions: 120 h
[19] = system: Trypanosoma cruzi; assay: Antitrypanosomal activity against Trypanosoma cruzi Y trypomastigotes at 16 uM after 48 hrs by Neubauer chamber counting analysis relative to control; type: functional
[20] = system: Trypanosoma cruzi; conditions: Y, 16 uM
Description: Inhibition of MMP9 in Trypanosoma cruzi Y epimastigotes assessed as effect on protein level at 16 uM after 5 days by Western blotting analysis

[21] = Cytotoxicity against BALB/c mouse peritoneal macrophages after 48 hrs by MTT/LDH assay; type: cell-based, Peritoneal macrophage cell
[22] = system: Trypanosoma cruzi; assay: Antitrypanosomal activity against Trypanosoma cruzi Y infected in BALB/c mouse peritoneal macrophages assessed as reduction of parasite burden after 48 hrs by Giemsa staining-based Neubauer chamber counting analysis
[23] = system: Trypanosoma cruzi; conditions: Y, 32 to 64 uM; remark: listed apart in the source
Description: Inhibition of metallopeptidase in Trypanosoma cruzi Y epimastigotes at 32 to 64 uM after 12 hrs by gelatin zymography assay

[24] = system: Trypanosoma cruzi; assay: Antitrypanosomal activity against Trypanosoma cruzi Y infected in BALB/c mouse peritoneal macrophages assessed as decrease in trypomastigotes release at 16 uM after 120 hrs by Giemsa staining-based Neubauer chamber counting analysis; type: functional, organism-based
[25] = molecular target: Carbonic anhydrase 1 (Homo sapiens, UniProt P00915); assay: Inhibition of human recombinant carbonic anhydrase-1-mediated CO2 hydration by stopped-flow assay
[26] = molecular target: Carbonic anhydrase 2 (Homo sapiens, UniProt P00918); assay: Inhibition of human recombinant carbonic anhydrase-2-mediated CO2 hydration by stopped-flow assay

Sequence of Carbonic anhydrase 1 (P00915 whole entry): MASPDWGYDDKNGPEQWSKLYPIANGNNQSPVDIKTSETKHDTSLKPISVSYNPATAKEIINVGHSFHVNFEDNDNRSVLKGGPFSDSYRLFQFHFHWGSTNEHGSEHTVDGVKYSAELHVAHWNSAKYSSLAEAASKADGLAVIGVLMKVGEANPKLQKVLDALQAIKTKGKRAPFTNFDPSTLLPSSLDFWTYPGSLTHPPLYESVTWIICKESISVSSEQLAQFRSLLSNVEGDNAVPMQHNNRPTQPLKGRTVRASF

With C[C@H]1c2cccc(O)c2C(=O)C2=C(O)[C@]3(O)C(=O)C(C(N)=O)=C(O)[C@@H](N(C)C)[C@@H]3[C@@H](O)[C@@H]21 the inhibition [1] was “inactive”.
With CC1(C(=O)NO)CC(c2cccc(Cl)c2)=NO1 (centres undefined) the Ki [2] was 365 nM and the “growth inhibition (GI)” value [3] was “inactive”.
For CC1(C(=O)NO)CC(c2cccc(Br)c2)=NO1 (centres undefined), the Ki [2] was 615 nM and the “growth inhibition (GI)” value [3] was “inactive”.
With O=C(Cn1ccnc1[N+](=O)[O-])NCc1ccccc1 [BENZNIDAZOLE] the Survival [4] was 25 days and the “growth inhibition (GI)” value [3] was “Active”.
In the case of O=C(NO)C1CC(c2ccccc2)=NO1 (centres undefined), the Ki [2] is reported as 428 nM and the “growth inhibition (GI)” value [3] is reported as “inactive”.
With O=C(NO)C1CC(c2ccc(Cl)cc2)=NO1 (centres undefined) the Ki [2] was 189 nM and the “growth inhibition (GI)” value [3] was “Active”.
In the case of O=C(NO)C1CC(c2ccc(OCc3ccccc3)cc2)=NO1 (centres undefined), the Activity [5] is reported as “Active”, the Ki [2] is reported as 39.8 nM and the Activity [6] is reported as “inactive”. For the same molecule, the IC50 [7] was 7000 nM, the Activity [8] was 100% and the Activity [9] was 5%. For the same molecule, the Activity [10] was “Active”, the IC50 [11] was 3500 nM and the Activity [12] was 100%. For the same molecule, the inhibition [13] was “Active”, the CC50 at 24 h [14] was 92000 nM and the Survival [15] was 25 days. For the same molecule, the IC50 [16] was < 1000 nM, the IC50 [17] was 5900 nM and the IC50 [18] was 10400 nM. For the same molecule, the inhibition of growth at 32 µM ([3]; 120 h, read-out: GI) was 100%, the Activity [19] was 100% and the inhibition [20] was “Active”. For the same molecule, the CC50 at 48 h [21] was 64000 nM, the IC50 [22] was 9100 nM and the inhibition [23] was “Active”. The Activity [24] was “Active”.
For O=C(NO)C1CC(c2cccc(Cl)c2)=NO1 (centres undefined), the Ki [2] was 267 nM and the “growth inhibition (GI)” value [3] was “Active”.
For CCOc1ccccc1C1=NOC(C(=O)NN)C1 (centres undefined), the Ki [25] was > 100000 nM, the Ki [2] was > 100000 nM and the Ki [26] was > 100000 nM.
For CCOc1ccc(C2=NOC(C(=O)NO)C2)cc1 (centres undefined), the Ki [2] was 71.3 nM and the “growth inhibition (GI)” value [3] was “Active”.
Work on CC1(C(=O)NO)CC(c2cccc(F)c2)=NO1 (centres undefined) yielded a Ki [2] of 182 nM.
With CCOc1ccccc1C1=NOC(C(=O)NO)C1 (centres undefined) the Ki [2] was 94.1 nM and the “growth inhibition (GI)” value [3] was “Active”.
CC1(C(=O)NO)CC(c2ccccc2F)=NO1 (centres undefined) gave a Ki [2] of 141 nM.
In the case of O=C(NO)C1CC(c2ccccc2Cl)=NO1 (centres undefined), the Ki [2] is reported as 263 nM and the “growth inhibition (GI)” value [3] is reported as “Active”.
In the case of CCOc1ccc(C2=NOC(C(=O)NN)C2)cc1 (centres undefined), the Ki [25] is reported as > 100000 nM, the Ki [2] is reported as > 100000 nM and the Ki [26] is reported as > 100000 nM.
